From publication PMC10721329, “Quisinostat is a brain-penetrant radiosensitizer in glioblastoma” (JCI Insight, 2023)
Values joined by “and” are separate entries in the source; they are usually repeats but may differ in a detail not shown here. Identical values can stand only once.

How the values were obtained:
BT145 cells = experiment: Annexin V / ViaDye Red flow cytometry (apoptosis); format: cell-based, human; settings: 75 nM QST
From the text: (§1) For apoptosis analysis, the Dead Cell Apoptosis Kit with Annexin V FITC and Propidium Iodide for Flow Cytometry (Thermo Fisher Scientific, V13242) was followed using the manufacturer instructions, with the exception that we employed ViaDye Red Fixable Viability Dye Kit (Cytek, SKU R7-60008) instead of propidium iodide to label necrotic cells. Samples were run on the AURORA 3L 24 color spectrum cytometers (Cytek), unmixed by SpectroFlo application, and analyzed with FlowJo 10.8.1 software (Beckton Dickinson). Recommended negative controls for flow cytometry include (1) no Annexin V FITC and no ViaDye Red, (2) Annexin V FITC alone, and (3) ViaDye Red alone. The following gating strategy was used: debris population was excluded as the subset of cells with low forward scatter in the forward scatter area versus side scatter area plot. After excluding the debris, cells were gated on the Annexin versus ViaDye Red log plot with the classification as live (Annexin V negative, ViaDye Red negative), early apoptotic (Annexin V positive, ViaDye Red negative), late apoptotic (Annexin V positive, ViaDye Red positive), or necrotic (Annexin V negative, ViaDye Red positive). The frequency of the different cell subsets was reported as frequency on the total cell population, excluding debris. […]

GB126 cells = experiment: Annexin V / ViaDye Red flow cytometry (apoptosis); format: cell-based, human; settings: 86 nM QST
From the text: as §1

[1] = Stability in mouse plasma with esterase inhibitors (BNPP, PMSF, DTNB); format: in vitro ADME; settings: 37 C, QST conc 500nM
Method: Hydroxamic acid–based compounds have been reported to display poor stability and high plasma clearance due to the presence of arylesterases and carboxylesterases in rodent blood ([34]). Therefore, we measured the stability of QST in mouse plasma and brain to determine whether drug degradation occurred during our sample preparations and equilibrium dialyses for the determination of unbound drug level (performed at 37°C). […] QST degradation was also observed in mouse brain homogenate (Figure 6B). However, perfusion of mice before brain collection prevented rapid drug degradation in the brain matrix. […] Degradation of QST can also be constrained if plasma and brain samples are processed at 4°C (Supplemental Figure 4A). All subsequent sample preparations were therefore performed on ice-cold baths to avoid degradation of QST in our PK analyses. […] The observed stability is probably due to the absence of esterases in human matrices, which are responsible for degradation of QST ([34]). Because we employed QST in several in vitro studies (Figures 1–4), the stability of the molecule was also tested in the cell media used to culture GSCs (neurobasal medium; see Methods).
Stability Study in Mouse Plasma, Mouse Brain, Human Plasma, Human Brain, and Neural […]
The stability of QST was determined in BALB/c mouse plasma, male nude athymic perfused and nonperfused mouse brain homogenate (1:9 w/v of PBS; pH 7.4), human brain (obtained from VRL Eurofins) homogenate (1:4 w/v of PBS; pH 7.4), pooled human plasma (Innovative Research), and neurobasal media. QST stock solutions (1 mM) were prepared in acetonitrile, subsequently diluted in a 40% methanol mixture, and added t o the matrices to make final concentrations of 100 nM or 10 nM. Then 50 or 30 µL of either plasma or brain homogenate containing QST were aliquoted into 1.5-mL microcentrifuge tubes (Eppendorf) and were incubated at either 4 °C or 37 °C for 0, 2, 4, 6, 12, or 24 hours (n = 3 at each time point).
The stability of QST in mouse plasma was also tested at 0, 2, 8, 16, or 24 hours (n = 3 at each time point) in the presence of esterase inhibitors: 0.25 mM BNPP, 1mM dithiobis(2-nitrobenzoic acid) (DTNB), or 1.25 mM phenylmethylsulfonyl fluoride (PMSF). Plasma and brain homogenate samples were stored at −80 °C until LC-MS/MS analysis. […]
Supplemental Figure 4. Stability of QST in mouse plasma is improved upon addition of esterase inhibitors. (A) Stability of QST (100 nM) in mouse plasma and mouse brain homogenate when sample preparation is performed at 4 °C. (B) Stability of QST (500 nM) in mouse plasma spiked with 3 different esterase inhibitors: 0.25 mM bis(p-nitrophenyl) phosphate (BNPP), 1.25 mM phenylmethylsulfonyl fluoride (PMSF), and 1 mM dithiobis(2-nitrobenzoic acid) (DTNB) over the course of 24 hours at 37 °C. (C) Stability of QST (10 nM and 100 nM) in neurobasal cell culture medium over the course of 24 hours at 37 °C.

[2] = representative plot, quadrant assigned by inference

Cn1cc(CNCC2CCN(c3ncc(C(=O)NO)cn3)CC2)c2ccccc21 [QST, quisinostat]
Apoptotic, Annexin+ ViaDye - (%) (BT145 cells; replicates): 60% and 53.4% and 59.8% | Dead, Annexin+ ViaDye + (%) (BT145 cells; replicates): 5.66% and 6.66% and 4.49% | ViaDyeRed / Annexin V-FITC dot plot quadrant, live (Annexin-, ViaDye-) (BT145 cells; [2]): 39.3 | ViaDyeRed / Annexin V-FITC dot plot quadrant, necrotic (Annexin-, ViaDye+) (BT145 cells; [2]): 0.65 | Apoptotic, Annexin+ ViaDye - (%) (GB126 cells; replicates): 9.54% and 12.5% and 8.59% | Dead, Annexin+ ViaDye + (%) (GB126 cells; replicates): 12.7% and 14.5% and 9.91% | ViaDyeRed / Annexin V-FITC dot plot quadrant, live (Annexin-, ViaDye-) (GB126 cells; [2]): 71.9 | ViaDyeRed / Annexin V-FITC dot plot quadrant, necrotic (Annexin-, ViaDye+) (GB126 cells; [2]): 5.85 | %stability ([1]; mouse plasma with 0.25mM BNPP, time 0): 107.9% and 91.2% and 100.9% | %stability ([1]; mouse plasma with 0.25mM BNPP, time 0, mean): 100.0% | %stability ([1]; mouse plasma with 0.25mM BNPP, time 2): 64.6% and 83.0% and 82.7% | %stability ([1]; mouse plasma with 0.25mM BNPP, time 2, mean): 76.8% | %stability ([1]; mouse plasma with 0.25mM BNPP, time 8): 61.2% and 65.8% and 67.9% | %stability ([1]; mouse plasma with 0.25mM BNPP, time 8, mean): 65.0% | %stability ([1]; mouse plasma with 0.25mM BNPP, time 16): 53.0% and 52.9% and 53.7% | %stability ([1]; mouse plasma with 0.25mM BNPP, time 16, mean): 53.2% | %stability ([1]; mouse plasma with 0.25mM BNPP, time 24): 47.9% and 55.7% and 51.9% | %stability ([1]; mouse plasma with 0.25mM BNPP, time 24, mean): 51.8% | %stability ([1]; mouse plasma with 1mM DTNB, time 0): 107.9% and 91.2% and 100.9% | %stability ([1]; mouse plasma with 1mM DTNB, time 0, mean): 100.0% | %stability ([1]; mouse plasma with 1mM DTNB, time 2): 20.7% and 19.1% and 20.9% | %stability ([1]; mouse plasma with 1mM DTNB, time 2, mean): 20.2% | %stability ([1]; mouse plasma with 1mM DTNB, time 8): 0.277% and 0.7% | %stability ([1]; mouse plasma with 1mM DTNB, time 8, mean): 0.5% | %stability ([1]; mouse plasma with 1mM DTNB, time 16): 0.6% and 0.5% | %stability ([1]; mouse plasma with 1mM DTNB, time 16, mean): 0.545% | %stability ([1]; mouse plasma with 1mM DTNB, time 24): 0.7% and 0.6% and 0.25% | %stability ([1]; mouse plasma with 1mM DTNB, time 24, mean): 0.5% | %stability ([1]; mouse plasma with 1.25mM PMFS, time 0): 107.9% and 91.2% and 100.9% | %stability ([1]; mouse plasma with 1.25mM PMFS, time 0, mean): 100.0% | %stability ([1]; mouse plasma with 1.25mM PMFS, time 2): 61.9% and 64.2% and 59.2% | %stability ([1]; mouse plasma with 1.25mM PMFS, time 2, mean): 61.8% | %stability ([1]; mouse plasma with 1.25mM PMFS, time 8): 26.3% and 24.6% and 23.5% | %stability ([1]; mouse plasma with 1.25mM PMFS, time 8, mean): 24.8% | %stability ([1]; mouse plasma with 1.25mM PMFS, time 16): 6.1% and 5.9% and 7.1% | %stability ([1]; mouse plasma with 1.25mM PMFS, time 16, mean): 6.4% | %stability ([1]; mouse plasma with 1.25mM PMFS, time 24): 4.3% and 3.8% | %stability ([1]; mouse plasma with 1.25mM PMFS, time 24, mean): 4.0%
